Reference: patent US7151105B2, “Inhibitors of Hepatitis C virus RNA-dependent RNA polymerase, and compositions and treatments using the same” (Agouron Pharmaceuticals, Inc., priority 2004, dated 2006)
Where a name gives a salt, the structure may show the parent alone.

Biological target: T1, Recombinant HCV polymerase (Hepatitis C virus genotype 1b, UniProt P26663)
T1 construct: Recombinant HCV polymerase was tested for its ability to perform primer/template-directed transcription
Test: biochemical
Conditions: inhibition of polymerase-directed transcription; 30 min at 30° C; 30 nM enzyme; cpm data in triplicate
Procedure: The compounds described herein were tested for activity with HCV polymerase. Recombinant HCV polymerase was tested for its ability to perform primer/template-directed transcription in assays that contained 30 mM tris-HCl pH 7.2, 10 mM MgCl2, 20 mM NaCl, 1 mM Dithiothreitol (DTT), 0.05% Tween-20, 1% glycerol, 5 pmoles biotin-dG12 (primer), 0.5 pmoles poly(rC)300 (template), 1 μM GTP, 0.1–0.3 uCi α-^32P-GTP, and 2.5 pmoles (0.15 μg) HCV polymerase protein in a final volume of 75 μL. Reactions were initiated by addition of enzyme and incubated 30 minutes at 30° C. Reactions were stopped by addition of 33 mM EDTA, and polynucleotide products were collected by filtration through Diethylaminoethyl (DE) Filtermat papers (Wallac). Unincorporated triphosphate was removed by washing the filters with 5% dibasic sodium phosphate. The filters were counted in a Packard Tri-Lux Microbeta scintillation counter (Packard Bioscience, Meriden, Conn.). Compounds to be tested were added at various concentrations, e.g., 1 μm to 50 μm, from stocks in 10% DMSO-water (final DMSO is 1% in reaction).
IC50 values were estimated from the primary cpm data (collected in triplicate) using the formula: cpm (I)=cpm (no inhibitor)(1−([I]/([I]+IC50))). […] A percent inhibition value is expressed for a compound where it was impractical to calculate an IC50 value with available data.

T1 sequence (P26663 2420-3010): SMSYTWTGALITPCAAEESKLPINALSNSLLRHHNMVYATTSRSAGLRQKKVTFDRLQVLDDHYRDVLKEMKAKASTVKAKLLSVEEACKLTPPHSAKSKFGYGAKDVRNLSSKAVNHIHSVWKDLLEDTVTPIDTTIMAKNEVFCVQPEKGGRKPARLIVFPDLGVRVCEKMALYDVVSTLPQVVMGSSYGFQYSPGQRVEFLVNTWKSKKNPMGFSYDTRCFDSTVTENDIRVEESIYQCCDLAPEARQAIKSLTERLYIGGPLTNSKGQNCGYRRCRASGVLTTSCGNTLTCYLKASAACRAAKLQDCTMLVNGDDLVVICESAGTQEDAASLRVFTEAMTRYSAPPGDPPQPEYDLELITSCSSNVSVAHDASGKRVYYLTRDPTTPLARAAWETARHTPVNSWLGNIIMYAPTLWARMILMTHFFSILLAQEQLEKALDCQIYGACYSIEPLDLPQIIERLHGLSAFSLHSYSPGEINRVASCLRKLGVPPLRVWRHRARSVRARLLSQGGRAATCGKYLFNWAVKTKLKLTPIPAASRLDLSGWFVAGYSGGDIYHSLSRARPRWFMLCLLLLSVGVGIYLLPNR

SMILES | IC50 [nM]
CCc1cc(CCC2(C3CCCC3)CC(O)=C(Cc3nc4ncc(C)cn4n3)C(=O)O2)cc(CC)n1 (centres unmarked) [A(36)] | 30
COc1cc(O)c(C(C)=O)cc1CCC1(C2CCCC2)CC(=O)CC(=O)O1 (centres unmarked) [A(99), 6-[2-(5-Acetyl-4-hydroxy-2-methoxyphenyl)ethyl]-6-cyclopentyldihydro-2H-pyran-2,4(3H)-dione] | 8400
CCc1cc(CCC2(C3CCCC3)CC(O)=C(Cc3nc4nc(C)cc(C)n4n3)C(=O)O2)c(OCC2CC2)cc1O (centres unmarked) [A(32), 6-Cyclopentyl-6-{2-[2-(cyclopropylmethoxy)-5-ethyl-4-hydroxyphenyl]ethyl}-3-[(5,7-dimethyl[1,2,4]triazolo[1,5-a]pyrimidin-2-yl)methyl]-4-hydroxy-5,6-dihydro-2H-pyran-2-one] | 5
CCc1cc(CCC2(C3CCCC3)CC(O)=C(Cc3nc4nc(C)cc(C)n4n3)C(=O)O2)c(OC)cn1 (single isomer, unassigned) [A(38), 6-Cyclopentyl-3-[(5,7-dimethyl[1,2,4]triazolo[1,5-a]pyrimidin-2-yl)methyl]-6-[2-(2-ethyl-5-methoxypyridin-4-yl)ethyl]-4-hydroxy-5,6-dihydro-2H-pyran-2-one] | 3
COc1cc(OC)c(CCC2(C3CCCC3)CC(O)=C(Cc3nc(-c4cnccn4)nn3C)C(=O)O2)cc1Cl (centres unmarked) [B(15), 6-[2-(5-Chloro-2,4-dimethoxyphenyl)ethyl]-6-cyclopentyl-4-hydroxy-3-[(1-methyl-3-pyrazin-2-yl-1H-1,2,4-triazol-5-yl)methyl]-5,6-dihydro-2H-pyran-2-one] | 19
COc1cc(OC)c(CCC2(C3CCCC3)CC(O)=C(Cc3nc(-c4ccccc4)nn3C)C(=O)O2)cc1Cl (centres unmarked) [B(17), 6-[2-(5-Chloro-2,4-dimethoxyphenyl)ethyl]-6-cyclopentyl-4-hydroxy-3-[(1-methyl-3-phenyl-1H-1,2,4-triazol-5-yl)methyl]-5,6-dihydro-2H-pyran-2-one] | 26
CCn1cc(CCC2(C3CCCC3)CC(O)=C(Cc3nc4nc(C)cc(C)n4n3)C(=O)O2)cn1 (centres unmarked) [A(61), 6-Cyclopentyl-3[(5,7-dimethyl[1,2,4]triazolo[1,5-a]pyrimidin-2-yl)methyl]-6-[2-(1-ethyl-1H-pyrazol-4-yl)ethyl]-4-hydroxy-5,6-dihydro-2H-pyran-2-one] | 140
CCOC(=O)c1cnc2nc(CC3=C(O)CC(CCc4ccc(C(C)(C)C#N)c(Cl)c4)(C4CCCC4)OC3=O)nn2c1 (centres unmarked) [B(13), Ethyl 2-[(6-{2-[3-chloro-4-(1-cyano-1-methylethyl)phenyl]ethyl}-6-cyclopentyl-4-hydroxy-2-oxo-5,6-dihydro-2H-pyran-3-yl)methyl][1,2,4]triazolo[1,5-a]pyrimidine-6-carboxylate] | 4
CCc1cc(CCC2(C3CCCC3)CC(O)=C(Cc3nc4nc(C)cc(C)n4n3)C(=O)O2)c(C)nc1N (centres unmarked) [A(124), 6-[2-(6-Amino-5-ethyl-2-methylpyridin-3-yl)ethyl]-6-cyclopentyl-3-[(5,7-dimethyl[1,2,4]triazolo[1,5-a]pyrimidin-2-yl)methyl]-4-hydroxy-5,6-dihydro-2H-pyran-2-one] | 8
CCn1cc(CC2=C(O)CC(CCc3ccc(C(C)(C)C#N)c(Cl)c3)(C3CCCC3)OC2=O)cn1 (centres unmarked) [B(23), 2-[2-Chloro-4-(2-{2-cyclopentyl-5-[(1-ethyl-1H-pyrazol-4-yl)methyl]-4-hydroxy-6-oxo-3,6-dihydro-2H-pyran-2-yl}ethyl)phenyl]-2-methylpropanenitrile] | 140
CCc1cc(CCC2(C3CCCC3)CC(O)=C(Cc3nc4nc(C)cc(C)n4n3)C(=O)O2)ccc1CN (centres unmarked) [A(125), 6-{2-[4-(Aminomethyl)-3-ethylphenyl]ethyl}-6-cyclopentyl-3-[(5,7-dimethyl[1,2,4]triazolo[1,5-a]pyrimidin-2-yl)methyl]-4-hydroxy-5,6-dihydro-2H-pyran-2-one hydrochloride] | 10
